Earlier results, collected in publication PMC8522729 (Antimicrobial Agents and Chemotherapy, 2021).

Tested on: M. tuberculosis
Conditions: cited from earlier work

In the case of O=C1CCc2c(OC[C@]3(O)CCN(c4c(F)cc(Cl)cc4F)C[C@H]3O)ccc(F)c2N1 [OPC-167832], the frequency of resistance is given as < 1.9 × 10^−7.
